Article PMC5485984, “Sugar-Binding Profiles of Chitin-Binding Lectins from the Hevein Family: A Comprehensive Study” (International Journal of Molecular Sciences, 2017)

Molecular target: T1, DSA (Datura stramonium agglutinin) (Datura stramonium, UniProt A0A089ZWN7)
T1 construct: gene dsa-b; four hevein domains and extensin-like domain
T1 sequence (A0A089ZWN7 24-279): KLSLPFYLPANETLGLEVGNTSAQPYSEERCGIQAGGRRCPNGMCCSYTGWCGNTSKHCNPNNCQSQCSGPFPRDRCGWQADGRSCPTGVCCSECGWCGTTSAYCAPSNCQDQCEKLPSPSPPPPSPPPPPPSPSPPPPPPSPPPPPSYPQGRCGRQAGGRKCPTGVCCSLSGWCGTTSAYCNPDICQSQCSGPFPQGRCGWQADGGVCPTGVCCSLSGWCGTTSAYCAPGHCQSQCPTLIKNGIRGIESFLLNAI
Design: Frontal affinity chromatography, pyridylaminated oligosaccharides on Sepharose-immobilized lectin; Kd = Bt/(V-V0)
Conditions: binder
Description: For systematic comparison of sugar-binding properties of the six chitin-binding lectins, FAC was carried out with a previously established procedure. Briefly, to determine the Kd values of each of the six chitin-binding lectins for 124 PA-oligosaccharides, each of the lectins was immobilized on activated Sepharose at several concentrations: one for concentration-dependent analysis to determine the effective ligand content Bt (expressed in nmol) of a standard column, from which Kd values for a panel of PA-oligosaccharides were determined according to a simplified basic equation of FAC, Kd = Bt/(V − V0). The other(s) are supplementary to cover a wide range of possible Kd values, which is in direct relation to the observed value of V − V0 (for more detail, see Materials and Methods). […] It is often useful to discuss lectin-oligosaccharide interactions in terms of an affinity constant, Ka (1/Kd), instead of Kd. […] This was applied in the cases of DSA (6.0 and 1.5 mg/mL), UDA (6.0, 3.0, 1.0, and 0.3 mg/mL), WGA (7.0, 2.0, and 0.5 mg/mL), and LEL (6.0 and 0.5 mg/mL).

Structure (SMILES)	Kd [µM]
OC[C@@H](O)[C@@H](O[C@@H]1O[C@H](CO)[C@H](O)[C@H](O)[C@H]1O)[C@H](O)[C@@H](O)CNc1ccccn1 [compound 701, 701]	31
CC(=O)N[C@@H](CNc1ccccn1)[C@@H](O)[C@H](O[C@@H]1O[C@H](CO)[C@H](O)[C@H](O)[C@H]1O)[C@H](O)CO [compound 901, 901]	87
